Consider two molecules from PMC7697635, “Dual RNase and β-lactamase Activity of a Single Enzyme Encoded in Archaea” (Life, 2020).

Experiment [1] deals with T1, MetbaB (Methanosarcina β-lactamase class B) (Methanosarcina barkeri, UniProt A0A0E3SJT9).
T1 construct: gene MSBR3_0040
The experiment in a line: inhibition of nitrocefin hydrolysis, absorbance at […] nm. The experiment is classed as biochemical. The settings on record: substrate nitrocefin; 1 µg/mL sulbactam; 30 min.

Experiment [2] relates to T2, archaeal class C-like β-lactamase.
T2 construct: gene class C-like beta-lactamase
The experiment in a line: nitrocefin hydrolysis, absorbance at […] nm, Michaelis-Menten fit. Conditions: room temperature; 4 µM enzyme; 0.05-1.5 mM nitrocefin. The class given is biochemical, Methanosarcina sp.

T1 sequence (A0A0E3SJT9 1-213 limits assumed): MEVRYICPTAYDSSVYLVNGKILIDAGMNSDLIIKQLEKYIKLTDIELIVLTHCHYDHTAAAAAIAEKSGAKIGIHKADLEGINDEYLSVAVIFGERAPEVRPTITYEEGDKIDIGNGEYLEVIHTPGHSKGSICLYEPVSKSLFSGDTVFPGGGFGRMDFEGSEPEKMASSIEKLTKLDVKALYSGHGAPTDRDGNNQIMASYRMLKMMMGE

On to `CC1(C)[C@H](C(=O)O)N2C(=O)C[C@H]2S1(=O)=O` [sulbactam], for which the “inhibition at 1 μg/mL” value in experiment [1] was “in the presence of sulbactam, no degradation of the nitrocefin β-lactam could be detected”.
With `O=C(Cc1cccs1)N[C@@H]1C(=O)N2C(C(=O)O)=C(/C=C/c3ccc([N+](=O)[O-])cc3[N+](=O)[O-])CS[C@H]12` [nitrocefin], the Michaelis-Menten constant (Km) (in general, the concentration of substrate that gives half-maximal velocity) in experiment [2] turned out to be 584 µM.
